“Also recorded” adds a separate entry of the source.
Experiments:
[1] = tested on: RPB1 (RNAPII) in PC3 cells; test: RPB1 degradation in PC3 cells under hypoxia, immunocytochemistry and western blot; type: cell-based, human; conditions: PC3, hypoxic but not normoxic conditions, 3 µM compound 1
Protocol: Western blot analysis. Whole cell lysates were prepared by adding lysis buffer [4% SDS, 20% glycerol, 10% 2-mercaptoethanol, 0.004% bromophenol blue, 0.125 M Tris-HCl (pH 6.8)] to the cell pellets for 30 minutes in ice followed by centrifugation at 12,000×g for 10 minutes then boiling for 5 minutes. For isolation of cytosolic and mitochondrial fractions of cytochrome C, cell pellets were resuspended in CLAMI buffer (250 mM sucrose, 70 mM KCl, […] digitonin in 1×PBS, protease inhibitor cocktail (1 tablet/10 ml CLAMI buffer)) then incubated on ice for 5 minutes. After centrifugation at 12,000×g for 5 minutes at 4° C., supernatant (cytoplasmic fraction) was collected and the pellet resuspended in lysis buffer as described above. Proteins were then separated by SDS-PAGE and transferred to nitrocellulose membranes (Bio-Rad). […] Antibody-protein complexes were detected using enhanced chemiluminescence (ECL) immunoblotting detection reagent (EMD Millipore).
(§1) Immunocytochemistry and cytochemistry. […] Glucose uptake was monitored by incubating cells in 200 μM 2-NBDG (ThermoFisher) for 6 hours prior to fixation. Fluorescence was observed under the Nikon Eclipse TE200 Inverted microscope (Nikon Instruments Inc., Melville, N.Y., USA). […] Rpb1 levels were measured using the MEASURE feature of ImageJ where all the background signals were subtracted from the intergrated density of nuclear Rpb1.

[2] = Stability of glutriptolides in human serum (HPLC-MS); type: in vitro ADME; conditions: incubation for up to 72 h
Protocol: Stability of glutriptolides in human serum. Human serum (Sigma, 10% in DMEM media) was treated with 10 μM drug (triptolide or glutriptolides) at room temperature for various time points. The incubation was stopped by placing samples on dry ice followed by overnight storage in −80° C. Frozen samples were then lyophilized and reconstituted in DMSO at room temperature for an hour. Samples were centrifuged at 12,000 RPM for 10 minutes and supernatants loaded into an HPLC-MS with the following conditions: (Varian pursuit XR5 Diphenyl 150×4.6 mm; A phase: Millipore water with 0.1% HCOOH; B phase: Acetonitrile with 0.1% HCOOH; 0-6 min: […]; 6-24 min: 5% B-100% B; 24-28 min: 100% B; 28-29 min: 100% B5% B; 29-30 min: 5% B).

[3] = tested on: HepG2; test: HepG2 proliferation under hypoxia ([3H]-thymidine incorporation); type: cell-based, human; conditions: HepG2, 1% O2, 48 h post treatment
[4] = tested on: PC3 cells; test: PC3 proliferation under hypoxia or normoxia ([3H]-thymidine incorporation); type: cell-based, human; conditions: for IC50: Homo sapiens, PC-3, 48 h, 48 h post treatment
Protocol: Proliferation and viability assays. [^3H]-thymidine incorporation. HEK293T cells (10,000 cells/well) were seeded into 96-well plates then cultured in DMEM plus 10% FBS and 1% penicillin/streptomycin at 37° C. with 5% CO2 overnight. Drugs were added at indicated concentrations and incubation was continued for an additional 24 h. For hypoxia, PC3 (5,000 cells/well) were exposed to 1% O2 (Airgas) in a humidified hypoxia chamber (Billups-Rothenberg) in 37° C. for 48 h prior to drug exposure for 48 h. Treated cells were then pulsed using an aliquot of 1 μCi of [^3H]-thymidine (Perkin Elmer) per well for an additional 6 h. Radiolabelled cells were harvested onto a printed Filtermat A glass fiber filter (Perkin Elmer) using a Tomtec Harvester 96 Mach III M. Betaplate Scint (Perkin Elmer) scintillation fluid was added to radiolabelled filters followed by scintillation counting on Microbeta2 LumiJET Microplate Counter (Perkin Elmer).

[5] = tested on: RPB1 (catalytic subunit of RNAPII); test: RPB1 (RNAPII) degradation in HeLa cells, immunostaining and western blot; type: cell-based, human; parameters: endogenous RNAPII (RPB1) level: unit of the concentration uncertain; conditions: 1 (unit uncertain) compound 1, 24 h
Protocol: Western blot analysis. Whole cell lysates were prepared by adding lysis buffer [4% SDS, 20% glycerol, 10% 2-mercaptoethanol, 0.004% bromophenol blue, 0.125 M Tris-HCl (pH 6.8)] to the cell pellets for 30 minutes in ice followed by centrifugation at 12,000×g for 10 minutes then boiling for 5 minutes. For isolation of cytosolic and mitochondrial fractions of cytochrome C, cell pellets were resuspended in CLAMI buffer (250 mM sucrose, 70 mM KCl, […] digitonin in 1×PBS, protease inhibitor cocktail (1 tablet/10 ml CLAMI buffer)) then incubated on ice for 5 minutes. After centrifugation at 12,000×g for 5 minutes at 4° C., supernatant (cytoplasmic fraction) was collected and the pellet resuspended in lysis buffer as described above. Proteins were then separated by SDS-PAGE and transferred to nitrocellulose membranes (Bio-Rad). After blocking at room temperature for 1 h, membranes were incubated at 4′C overnight with the primary antibodies including anti-Rpb1 (Santa Cruz Biotechnology), anti-XPB (Biotechne), anti-Actin (Developmental Studies Hybridoma Bank), anti-GAPDH (Santa Cruz Biotechnology), anti-cytochrome C (Santa Cruz Biotechnology), anti-PARP1 (Santa Cruz Biotechnology), anti-cleaved caspase 3 (Cell Signaling Technology), anti-VDAC (ProteinTech), anti-HIF-1[…] (BD sciences), and anti-GLUT1 (Santa Cruz Biotechnology) antibodies followed by incubation with horseradish peroxidase-conjugated anti-mouse or anti-rabbit IgG (GE Healthcare) at room temperature for 2 hours. Antibody-protein complexes were detected using enhanced chemiluminescence (ECL) immunoblotting detection reagent (EMD Millipore).
as §1

## CC(C)[C@]12O[C@H]1[C@@H]1O[C@]13[C@]1(O[C@H]1C[C@H]1C4=C(CC[C@@]13C)C(=O)OC4)[C@@H]2OC(=O)CCCO[C@@H]1OC(CO)[C@@H](O)C(O)C1O (stereo in doubt) [Compound 1]
[1]
  onset of RNAPII (RPB1) degradation: observed as early as 6 h
[2]
  stability in human serum: remained largely intact
[3]
  effect of hypoxia on anti-proliferative effect: resistance; also recorded: remains resistant
[4]; PC3, hypoxic conditions (1% O2)
  IC50: 81 nM
[4]; PC3, normoxic conditions (20% O2)
  IC50: 427 nM
[4]; PC3, hypoxia versus normoxia
  fold enhancement of anti-proliferative effect during hypoxia: five-fold
[5]
  endogenous RNAPII (RPB1) level: depletes endogenous RNA polymerase II

From US20230134986A1, “GLUCOSE TRIPTOLIDE CONJUGATES AND USES THEREOF” (The Johns Hopkins University, priority 2020, published 2023)
